The values that follow come from US10035771B2 (priority 2013, dated 2018).

For assay [1], the target named is type A botulinum toxin light chain (BoNT/A-LC) (Clostridium botulinum, UniProt P0DPI1). Nature of the assay: biochemical. As to conditions: for inhibition at 100 µg/mL: read-out: Inhibition rate %.
For assay [2], the target named is type B botulinum toxin light chain (BoNT/B-LC) (Clostridium botulinum, UniProt P10844). The experiment in a line: biochemical. As to conditions: for inhibition at 100 µg/mL: read-out: Inhibition rate %.
Chain of type B botulinum toxin light chain (BoNT/B-LC) (P10844 2-441 limits assumed): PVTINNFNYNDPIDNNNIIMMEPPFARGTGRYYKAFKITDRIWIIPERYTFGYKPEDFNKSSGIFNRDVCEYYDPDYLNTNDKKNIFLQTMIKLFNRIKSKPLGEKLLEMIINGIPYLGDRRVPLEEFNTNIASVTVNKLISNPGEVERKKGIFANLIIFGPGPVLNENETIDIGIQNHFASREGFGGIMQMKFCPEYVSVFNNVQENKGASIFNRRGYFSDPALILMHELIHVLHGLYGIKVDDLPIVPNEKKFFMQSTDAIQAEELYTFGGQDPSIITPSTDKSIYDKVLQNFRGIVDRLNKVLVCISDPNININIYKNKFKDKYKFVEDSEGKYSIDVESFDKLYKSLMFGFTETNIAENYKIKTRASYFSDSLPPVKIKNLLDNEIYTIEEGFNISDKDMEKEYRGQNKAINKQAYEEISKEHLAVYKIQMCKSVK
The target of assay [3] is type E botulinum toxin light chain (BoNT/E-LC) (Clostridium botulinum, UniProt Q00496). Nature of the assay: biochemical. As to conditions: for inhibition at 100 µg/mL: read-out: Inhibition rate %.
Chain of type E botulinum toxin light chain (BoNT/E-LC) (Q00496 2-422 limits assumed): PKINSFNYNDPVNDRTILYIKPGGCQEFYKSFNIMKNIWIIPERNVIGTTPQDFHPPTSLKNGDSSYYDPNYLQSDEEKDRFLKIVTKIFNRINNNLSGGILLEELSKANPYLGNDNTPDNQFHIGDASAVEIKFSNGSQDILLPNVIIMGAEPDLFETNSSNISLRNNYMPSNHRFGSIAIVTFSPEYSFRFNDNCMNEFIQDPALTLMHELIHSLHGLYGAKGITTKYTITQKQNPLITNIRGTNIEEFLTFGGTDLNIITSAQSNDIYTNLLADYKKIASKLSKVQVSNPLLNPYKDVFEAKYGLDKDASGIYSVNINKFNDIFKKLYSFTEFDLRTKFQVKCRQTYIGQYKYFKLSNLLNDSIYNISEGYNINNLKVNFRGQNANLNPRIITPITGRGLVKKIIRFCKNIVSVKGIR
The target of assay [4] is BoNT/F-LC (Clostridium botulinum, UniProt A7GBG3). The experiment in a line: biochemical. To be noted: for inhibition at 100 µg/mL: read-out: Inhibition rate %.
Chain of BoNT/F-LC (A7GBG3 1-436 limits assumed): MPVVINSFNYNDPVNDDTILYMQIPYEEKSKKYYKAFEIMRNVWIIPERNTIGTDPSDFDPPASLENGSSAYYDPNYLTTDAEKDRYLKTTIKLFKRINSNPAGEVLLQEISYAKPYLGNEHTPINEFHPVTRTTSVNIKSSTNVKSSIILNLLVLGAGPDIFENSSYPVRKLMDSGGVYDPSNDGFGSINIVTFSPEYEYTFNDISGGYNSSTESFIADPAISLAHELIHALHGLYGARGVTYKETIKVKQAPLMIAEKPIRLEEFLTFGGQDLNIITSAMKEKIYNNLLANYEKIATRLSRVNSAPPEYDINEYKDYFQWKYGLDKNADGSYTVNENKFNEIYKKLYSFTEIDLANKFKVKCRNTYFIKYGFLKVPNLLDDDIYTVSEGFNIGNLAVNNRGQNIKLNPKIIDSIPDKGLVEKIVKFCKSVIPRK
Assay [5] deals with tetanus toxin light chain (TeNt-LC) (Clostridium tetani, UniProt P04958). Nature of the assay: biochemical. As to conditions: for inhibition at 200 µg/mL: read-out: Inhibition rate %.
Chain of tetanus toxin light chain (TeNt-LC) (P04958 2-457 limits assumed): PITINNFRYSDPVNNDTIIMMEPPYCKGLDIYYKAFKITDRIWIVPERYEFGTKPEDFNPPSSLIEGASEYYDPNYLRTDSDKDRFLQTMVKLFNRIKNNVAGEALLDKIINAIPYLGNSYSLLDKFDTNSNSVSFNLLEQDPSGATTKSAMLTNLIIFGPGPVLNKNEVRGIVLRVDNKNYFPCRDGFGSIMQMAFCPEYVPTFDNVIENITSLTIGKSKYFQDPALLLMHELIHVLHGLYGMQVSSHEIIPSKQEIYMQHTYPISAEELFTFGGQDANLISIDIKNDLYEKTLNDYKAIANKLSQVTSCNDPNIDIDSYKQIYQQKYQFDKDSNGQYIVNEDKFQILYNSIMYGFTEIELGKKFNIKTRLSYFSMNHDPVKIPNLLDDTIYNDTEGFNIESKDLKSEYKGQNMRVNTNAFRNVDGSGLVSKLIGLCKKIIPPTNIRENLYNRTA
Assay [6] deals with type A botulinum toxin (BoNT/A) (Clostridium botulinum, UniProt P0DPI1). Also on record: species or system Balb/c mice. As to conditions: mouse, in vivo, ip.
Chain of type A botulinum toxin (BoNT/A) (P0DPI1 2-448 limits assumed): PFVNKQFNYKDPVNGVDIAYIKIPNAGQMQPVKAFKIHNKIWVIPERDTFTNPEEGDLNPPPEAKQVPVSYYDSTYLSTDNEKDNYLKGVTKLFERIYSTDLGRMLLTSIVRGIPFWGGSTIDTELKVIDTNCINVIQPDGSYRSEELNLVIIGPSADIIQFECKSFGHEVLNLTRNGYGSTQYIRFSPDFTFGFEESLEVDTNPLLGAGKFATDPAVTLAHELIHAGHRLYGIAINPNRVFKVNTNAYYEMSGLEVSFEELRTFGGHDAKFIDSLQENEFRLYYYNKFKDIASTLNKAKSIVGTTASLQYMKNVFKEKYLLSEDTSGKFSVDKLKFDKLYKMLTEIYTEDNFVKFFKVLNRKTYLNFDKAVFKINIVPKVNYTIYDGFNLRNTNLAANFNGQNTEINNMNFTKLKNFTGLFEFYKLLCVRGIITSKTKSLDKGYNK
Chain of type A botulinum toxin (BoNT/A) (P0DPI1 449-1296 limits assumed): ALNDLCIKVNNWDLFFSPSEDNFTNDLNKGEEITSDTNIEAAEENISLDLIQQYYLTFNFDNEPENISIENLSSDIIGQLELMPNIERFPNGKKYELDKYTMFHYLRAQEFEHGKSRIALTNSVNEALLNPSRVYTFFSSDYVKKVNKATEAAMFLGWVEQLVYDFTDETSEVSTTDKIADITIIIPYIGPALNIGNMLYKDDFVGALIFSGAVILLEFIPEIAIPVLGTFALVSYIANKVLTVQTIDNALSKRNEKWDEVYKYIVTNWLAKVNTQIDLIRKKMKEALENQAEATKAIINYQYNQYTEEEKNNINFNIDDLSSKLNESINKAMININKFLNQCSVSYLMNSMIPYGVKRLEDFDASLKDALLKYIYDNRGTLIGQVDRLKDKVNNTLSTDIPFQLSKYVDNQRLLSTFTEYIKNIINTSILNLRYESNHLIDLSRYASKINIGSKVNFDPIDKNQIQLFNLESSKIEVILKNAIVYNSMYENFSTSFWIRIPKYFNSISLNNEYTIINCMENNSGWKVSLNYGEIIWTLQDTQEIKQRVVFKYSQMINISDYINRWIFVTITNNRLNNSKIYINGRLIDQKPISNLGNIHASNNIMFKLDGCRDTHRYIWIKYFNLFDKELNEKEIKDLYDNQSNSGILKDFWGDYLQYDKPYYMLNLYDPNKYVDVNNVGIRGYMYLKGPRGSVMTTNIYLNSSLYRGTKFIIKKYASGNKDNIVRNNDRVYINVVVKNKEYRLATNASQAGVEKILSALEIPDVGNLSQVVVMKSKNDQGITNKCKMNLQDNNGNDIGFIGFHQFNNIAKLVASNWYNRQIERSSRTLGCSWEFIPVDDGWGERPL
Assay [7] deals with type B botulinum toxin (BoNT/B) (Clostridium botulinum, UniProt P10844). Also on record: species or system Balb/c mice. As to conditions: mouse, in vivo, ip.
Chain of type B botulinum toxin (BoNT/B) (P10844 2-441 limits assumed): as the sequence (P10844 2-441 limits assumed) above
Chain of type B botulinum toxin (BoNT/B) (P10844 442-1291 limits assumed): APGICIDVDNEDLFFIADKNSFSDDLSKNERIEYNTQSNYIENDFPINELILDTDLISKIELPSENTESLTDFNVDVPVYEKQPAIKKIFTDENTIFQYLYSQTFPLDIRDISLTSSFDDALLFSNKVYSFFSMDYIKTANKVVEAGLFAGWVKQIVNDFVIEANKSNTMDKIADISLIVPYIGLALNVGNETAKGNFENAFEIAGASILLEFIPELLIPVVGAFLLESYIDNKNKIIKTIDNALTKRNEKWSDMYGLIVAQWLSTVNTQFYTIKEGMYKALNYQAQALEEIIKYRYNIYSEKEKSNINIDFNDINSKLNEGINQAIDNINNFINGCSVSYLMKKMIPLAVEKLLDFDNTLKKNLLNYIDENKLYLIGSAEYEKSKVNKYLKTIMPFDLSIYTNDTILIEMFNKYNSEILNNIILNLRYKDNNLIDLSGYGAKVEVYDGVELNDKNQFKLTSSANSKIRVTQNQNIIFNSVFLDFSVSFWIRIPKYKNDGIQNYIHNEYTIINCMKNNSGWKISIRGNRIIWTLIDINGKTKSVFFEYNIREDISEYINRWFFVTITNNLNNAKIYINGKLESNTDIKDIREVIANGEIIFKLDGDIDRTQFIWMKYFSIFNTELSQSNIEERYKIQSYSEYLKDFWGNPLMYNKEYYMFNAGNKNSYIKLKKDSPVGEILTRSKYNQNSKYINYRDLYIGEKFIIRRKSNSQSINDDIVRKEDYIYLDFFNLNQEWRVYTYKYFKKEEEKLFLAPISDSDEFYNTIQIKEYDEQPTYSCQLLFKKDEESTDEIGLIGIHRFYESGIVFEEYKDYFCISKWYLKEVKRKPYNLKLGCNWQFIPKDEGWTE
In assay [8] the target is light chain of type A botulinum toxin (Clostridium botulinum, UniProt P0DPI1). To be noted: read-out: Ki value; cited from earlier work.

Chain of type A botulinum toxin light chain (BoNT/A-LC) (P0DPI1 2-448 limits assumed): as the sequence (P0DPI1 2-448 limits assumed) above

Turning to `COc1cc(Cl)cc(NCC(=O)Sc2ncccc2C(=O)[O-])c1.[Na+]` [Example 4, 2-(2-(3-chloro-5-methoxyanilino)acetylthio)nicotinate sodium], the inhibition (commonly how much of the control response was suppressed) at 100 µg/mL in assay [1] came to 45.4%; in assay [2], 95.5%; in assay [3], 43.2%; in assay [4] it was 48.6%. Besides, in assay [5], the inhibition at 200 µg/mL was determined as 34.5%. In addition, the “% survival” value in assay [6] and in assay [7] was 100% throughout.

For the compound `COc1ccc(Cl)cc1NC(=O)CSc1cc(C(=O)[O-])ccn1.[K+]` [Example 15], the “% survival” value in assay [6] was 80%.

For `O=C(CSc1ncccc1C(=O)[O-])Nc1cc(Cl)ccc1OCc1ccccc1.[K+]` [Example 23], the “% survival” value is on record as 100% in assay [6] and 80% in assay [7].

On to `COc1ccc(Cl)c(NC(=O)CSc2ncccc2C(=O)[O-])c1.[K+]` [Example 14], for which the “% survival” value in assay [6] came to 20%.

For `O=C(CSc1ncccc1C(=O)[O-])Nc1ccc(OC(F)(F)F)cc1.[K+]` [Example 21], the “% survival” value in assay [6] and in assay [7] was 40% in each case.

For `COc1ccc(Cl)cc1NCC(=O)Sc1ncccc1C(=O)[O-].[Na+]` [Example 1, 2-(2-(5-chloro-2-methoxyanilino)acetylthio)nicotinate sodium], the inhibition at 100 µg/mL amounted to 8.4% in assay [1], 27.8% in assay [2], 7.32% in assay [3] and 12.2% in assay [4]. Moreover, in assay [5], the inhibition at 200 µg/mL is 12.8%. Moreover, in assay [7], the “% survival” value turned out to be 40%.

For `COc1ccc(Cl)cc1NC(=O)CSc1ncccc1C(=O)[O-].[K+]` [Example 3], the Inhibition rate % is listed as 11.3% in assay [1]; 30.2% in assay [2]; 16.5% in assay [3]; 19.2% in assay [4]; 20.2% in assay [5]. Also, the “% survival” value in assay [6] is reported as 40%; in assay [7], 60%.

Take `O=C(CSc1ncccc1C(=O)[O-])Nc1ccccc1Cl.[K+]` [Example 8]: the “% survival” value in assay [6] was 80%; in assay [7] it was 0%.

Consider `O=C(CSc1ncccc1C(=O)[O-])Nc1cc(F)ccc1Cl.[K+]` [Example 18, 2-(2-(5-fluoro-2-chlorophenyl)-2-acetylthio)nicotinate potassium], for which the inhibition at 100 µg/mL came out at 11.4% in assay [1], 30.2% in assay [2], 17.2% in assay [3] and 16.2% in assay [4]. Also, the inhibition at 200 µg/mL in assay [5] was determined as 19.3%. In addition, the “% survival” value in assay [6] was found to be 0%; in assay [7], 40%.

In the case of `COC(=O)c1ccc(O)c2nc3c(C=O)c(O)cc(O)c3nc12` [lomofungin], in assay [8], the Ki (as a rule, the dissociation constant of the complex between target and ligand, obtained from inhibition or displacement) is 6.7 ± 0.7 µM.
